Reference: PubChem BioAssay AID248 (DTP/NCI, 2004)
Several values for one entry are separate records, joined by “and”; a condition that tells them apart may be missing. Identical values can stand only once. Inconclusive results and toxic doses are left out. Rule as the data show it: active = T/C of 150% or more; inactive = T/C below 125%.

System: L1210 leukemia ip in BDF1 mice, survival T/C
Experiment: NCI In Vivo Anticancer Drug Screen. Data for tumor model L1210 Leukemia (intraperitoneal) in B6D2F1 (BDF1) mice
Conditions: higher = longer survival
Outline: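 Each compound was tested against a transplantable tumor grown in mice. The endpoint was survival, with treated animals benchmarked against vehicle controls as a simple ratio.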

Measured: T/C

S=c1nc[nH]c2nc[nH]c12
inactive: endpoint: mean survival time, dose: 0.15 mg/kg/injection, schedule: Q01DX001 (ip), vehicle: other 102 % of control | endpoint: mean survival time, dose: 0.15 mg/kg/injection, schedule: Q01DX Z (ip), vehicle: other 98 % of control | endpoint: mean survival time, dose: 0.3 mg/kg/injection, schedule: Q01DX001 (ip), vehicle: other 101 % of control | endpoint: mean survival time, dose: 0.3 mg/kg/injection, schedule: Q01DX Z (ip), vehicle: other 101 % of control | endpoint: mean survival time, dose: 0.6 mg/kg/injection, schedule: Q01DX001 (ip), vehicle: other 93 % of control and 101 % of control | endpoint: mean survival time, dose: 0.6 mg/kg/injection, schedule: Q01DX Z (ip), vehicle: other 96 % of control | endpoint: mean survival time, dose: 0.63 mg/kg/injection, schedule: Q01DX015 (ip), vehicle: alkali diluted with saline 95 % of control | endpoint: mean survival time, dose: 1.1 mg/kg/injection, schedule: Q01DX001 (ip), vehicle: other 104 % of control | endpoint: mean survival time, dose: 1.25 mg/kg/injection, schedule: Q01DX015 (ip), vehicle: alkali diluted with saline 95 % of control | endpoint: mean survival time, dose: 1.3 mg/kg/injection, schedule: Q01DX001 (ip), vehicle: other 101 % of control | endpoint: mean survival time, dose: 1.3 mg/kg/injection, schedule: Q01DX Z (ip), vehicle: other 102 % of control | endpoint: mean survival time, dose: 1.9 mg/kg/injection, schedule: Q01DX009 (ip), vehicle: alkali diluted with saline 107 % of control | endpoint: mean survival time, dose: 2.0 mg/kg/injection, schedule: Q01DX001 (ip), vehicle: carboxymethylcellulose (CMC) 107 % of control | endpoint: mean survival time, dose: 2.2 mg/kg/injection, schedule: Q01DX001 (ip), vehicle: other 104 % of control | endpoint: mean survival time, dose: 2.5 mg/kg/injection, schedule: Q01DX015 (ip), vehicle: alkali diluted with saline 100 % of control | endpoint: mean survival time, dose: 2.5 mg/kg/injection, schedule: Q01DX Z (ip), vehicle: other 107 % of control | endpoint: mean survival time, dose: 3.8 mg/kg/injection, schedule: Q01DX009 (ip), vehicle: alkali diluted with saline 105 % of control | endpoint: mean survival time, dose: 3.8 mg/kg/injection, schedule: Q03DX Z (ip), vehicle: other 108 % of control | endpoint: mean survival time, dose: 4.0 mg/kg/injection, schedule: Q01DX001 (ip), vehicle: carboxymethylcellulose (CMC) 98 % of control | endpoint: mean survival time, dose: 4.4 mg/kg/injection, schedule: Q01DX001 (ip), vehicle: other 102 % of control | endpoint: mean survival time, dose: 5.0 mg/kg/injection, schedule: Q01DX015 (ip), vehicle: alkali diluted with saline 103 % of control | endpoint: mean survival time, dose: 5.0 mg/kg/injection, schedule: Q01DX Z (ip), vehicle: alkali diluted with saline 104 % of control and 110 % of control | endpoint: mean survival time, dose: 7.5 mg/kg/injection, schedule: Q01DX009 (ip), vehicle: alkali diluted with saline 101 % of control | endpoint: mean survival time, dose: 7.5 mg/kg/injection, schedule: Q01DX009 (ip), vehicle: saline 103 % of control | endpoint: mean survival time, dose: 7.5 mg/kg/injection, schedule: Q03DX Z (ip), vehicle: other 111 % of control | endpoint: mean survival time, dose: 8.0 mg/kg/injection, schedule: Q01DX001 (ip), vehicle: carboxymethylcellulose (CMC) 95 % of control | endpoint: mean survival time, dose: 8.0 mg/kg/injection, schedule: Q04DX002 (ip), vehicle: alkali diluted with saline 105 % of control and 106 % of control | endpoint: mean survival time, dose: 10.0 mg/kg/injection, schedule: Q01DX006 (iv), vehicle: other 103 % of control | endpoint: mean survival time, dose: 10.0 mg/kg/injection, schedule: Q01DX009 (oral), vehicle: saline with Tween-80 102 % of control and 107 % of control | endpoint: mean survival time, dose: 10.0 mg/kg/injection, schedule: Q01DX015 (ip), vehicle: alkali diluted with saline 101 % of control | endpoint: mean survival time, dose: 10.0 mg/kg/injection, schedule: Q01DX Z (ip), vehicle: alkali diluted with saline 110 % of control | endpoint: mean survival time, dose: 10.0 mg/kg/injection, schedule: Q01DX Z (sc), vehicle: other 111 % of control | endpoint: mean survival time, dose: 12.0 mg/kg/injection, schedule: Q04DX003 (ip), vehicle: saline 105 % of control | endpoint: mean survival time, dose: 12.5 mg/kg/injection, schedule: Q01DX009 (ip), vehicle: saline 112 % of control | endpoint: mean survival time, dose: 12.5 mg/kg/injection, schedule: Q01DX017 (ip), vehicle: other 104 % of control | endpoint: mean survival time, dose: 12.5 mg/kg/injection, schedule: Q01DX Z (ip), vehicle: other 105 % of control | endpoint: mean survival time, dose: 15.0 mg/kg/injection, schedule: Q01DX009 (ip), vehicle: saline 112 % of control | endpoint: mean survival time, dose: 16.0 mg/kg/injection, schedule: Q01DX001 (ip), vehicle: carboxymethylcellulose (CMC) 101 % of control | endpoint: mean survival time, dose: 16.0 mg/kg/injection, schedule: Q04DX002 (ip), vehicle: alkali diluted with saline 100 % of control and 102 % of control | endpoint: mean survival time, dose: 18.0 mg/kg/injection, schedule: Q01DX015 (ip), vehicle: alkali diluted with saline 104 % of control | endpoint: mean survival time, dose: 20.0 mg/kg/injection, schedule: Q01DX005 (ip), vehicle: alkali diluted with water 108 % of control and 111 % of control | endpoint: mean survival time, dose: 20.0 mg/kg/injection, schedule: Q01DX006 (iv), vehicle: other 108 % of control | endpoint: mean survival time, dose: 20.0 mg/kg/injection, schedule: Q01DX009 (oral), vehicle: saline with Tween-80 98 % of control and 105 % of control | endpoint: mean survival time, dose: 20.0 mg/kg/injection, schedule: Q01DX Z (ip), vehicle: alkali diluted with saline 110 % of control | endpoint: mean survival time, dose: 20.0 mg/kg/injection, schedule: Q02DX008 (ip), vehicle: alkali diluted with saline 105 % of control | endpoint: mean survival time, dose: 27.0 mg/kg/injection, schedule: Q01DX015 (ip), vehicle: alkali diluted with saline 106 % of control | endpoint: mean survival time, dose: 30.0 mg/kg/injection, schedule: Q04DX003 (ip), vehicle: saline 109 % of control | endpoint: mean survival time, dose: 32.0 mg/kg/injection, schedule: Q01DX001 (ip), vehicle: carboxymethylcellulose (CMC) 101 % of control | endpoint: mean survival time, dose: 32.0 mg/kg/injection, schedule: Q04DX002 (ip), vehicle: alkali diluted with saline 102 % of control and 103 % of control | endpoint: mean survival time, dose: 35.0 mg/kg/injection, schedule: Q01DX011 (ip), vehicle: alkali diluted with saline 108 % of control | endpoint: mean survival time, dose: 40.0 mg/kg/injection, schedule: Q01DX001 (ip), vehicle: alkali diluted with saline 104 % of control | endpoint: mean survival time, dose: 40.0 mg/kg/injection, schedule: Q01DX006 (iv), vehicle: other 111 % of control | endpoint: mean survival time, dose: 40.0 mg/kg/injection, schedule: Q#A X Z (ip), vehicle: other 94 % of control | endpoint: mean survival time, dose: 45.0 mg/kg/injection, schedule: Q06HX012 (ip), vehicle: alkali diluted with saline 96 % of control | endpoint: mean survival time, dose: 53.0 mg/kg/injection, schedule: Q01DX011 (ip), vehicle: alkali diluted with saline 109 % of control | endpoint: mean survival time, dose: 60.0 mg/kg/injection, schedule: Q01DX001 (ip), vehicle: alkali diluted with saline 110 % of control and 111 % of control | endpoint: mean survival time, dose: 60.0 mg/kg/injection, schedule: Q## X015 (ip), vehicle: other 107 % of control | endpoint: mean survival time, dose: 64.0 mg/kg/injection, schedule: Q01DX001 (ip), vehicle: carboxymethylcellulose (CMC) 98 % of control | endpoint: mean survival time, dose: 80.0 mg/kg/injection, schedule: Q01DX Z (ip), vehicle: carboxymethylcellulose (CMC) 105 % of control | endpoint: mean survival time, dose: 90.0 mg/kg/injection, schedule: Q01DX009 (ip), vehicle: carboxymethylcellulose (CMC) 107 % of control | endpoint: mean survival time, dose: 109.0 mg/kg/injection, schedule: Q01DX001 (ip), vehicle: alkali diluted with saline 110 % of control and 112 % of control | endpoint: mean survival time, dose: 109.0 mg/kg/injection, schedule: Q## X001 (ip), vehicle: alkali diluted with saline 111 % of control | endpoint: mean survival time, dose: 112.0 mg/kg/injection, schedule: Q02DX010 (ip), vehicle: carboxymethylcellulose (CMC) 110 % of control | endpoint: mean survival time, dose: 120.0 mg/kg/injection, schedule: Q01DX009 (ip), vehicle: carboxymethylcellulose (CMC) 103 % of control | endpoint: mean survival time, dose: 128.0 mg/kg/injection, schedule: Q01DX001 (ip), vehicle: carboxymethylcellulose (CMC) 95 % of control | endpoint: mean survival time, dose: 129.2 mg/kg/injection, schedule: Q02DX010 (ip), vehicle: carboxymethylcellulose (CMC) 110 % of control | endpoint: mean survival time, dose: 146.0 mg/kg/injection, schedule: Q01DX001 (ip), vehicle: alkali diluted with saline 108 % of control and 112 % of control | endpoint: mean survival time, dose: 151.0 mg/kg/injection, schedule: Q01DX015 (ip), vehicle: other 105 % of control | endpoint: mean survival time, dose: 160.0 mg/kg/injection, schedule: Q01DX009 (ip), vehicle: saline with Tween-80 104 % of control | endpoint: mean survival time, dose: 160.0 mg/kg/injection, schedule: Q01DX Z (im), vehicle: other 102 % of control | endpoint: mean survival time, dose: 200.0 mg/kg/injection, schedule: Q01DX009 (ip), vehicle: Klucel (hydroxypropylcellulose) (HPC) 103 % of control | endpoint: mean survival time, dose: 200.0 mg/kg/injection, schedule: Q01DX009 (ip), vehicle: alkali diluted with saline 108 % of control | endpoint: mean survival time, dose: 200.0 mg/kg/injection, schedule: Q## X009 (ip), vehicle: alkali diluted with saline 108 % of control | endpoint: mean survival time, dose: 202.0 mg/kg/injection, schedule: Q01DX009 (ip), vehicle: alkali diluted with saline 95 % of control | endpoint: mean survival time, dose: 240.0 mg/kg/injection, schedule: Q01DX009 (ip), vehicle: alkali diluted with saline 96 % of control | endpoint: mean survival time, dose: 240.0 mg/kg/injection, schedule: Q03DX Z (ip), vehicle: other 101 % of control | endpoint: mean survival time, dose: 256.0 mg/kg/injection, schedule: Q01DX001 (ip), vehicle: carboxymethylcellulose (CMC) 98 % of control | endpoint: mean survival time, dose: 303.0 mg/kg/injection, schedule: Q04DX003 (ip), vehicle: saline with Tween-80 101 % of control | endpoint: mean survival time, dose: 400.0 mg/kg/injection, schedule: Q04DX003 (ip), vehicle: saline with Tween-80 101 % of control | endpoint: mean survival time, dose: 510.0 mg/kg/injection, schedule: Q04DX002 (ip), vehicle: alkali diluted with saline 96 % of control and 104 % of control | endpoint: mean survival time, dose: 1020.0 mg/kg/injection, schedule: Q07DX Z (ip), vehicle: other 93 % of control | endpoint: mean survival time, dose: 2675.0 micrograms/kg/injection, schedule: Q01DX Z (ip), vehicle: carboxymethylcellulose (CMC) 108 % of control | endpoint: median survival time, dose: 6.25 mg/kg/injection, schedule: Q01DX009 (ip), vehicle: other 105 % of control | endpoint: median survival time, dose: 25.0 mg/kg/injection, schedule: Q01DX009 (ip), vehicle: other 111 % of control | endpoint: median survival time, dose: 100.0 mg/kg/injection, schedule: Q01DX009 (ip), vehicle: other 111 % of control | endpoint: median survival time, dose: 160.0 mg/kg/injection, schedule: Q01DX009 (ip), vehicle: saline 100 % of control
